The source of these data is paper PMC3531393, “In Vitro Evaluation of ESE-15-ol, an Estradiol Analogue with Nanomolar Antimitotic and Carbonic Anhydrase Inhibitory Activity” (PLoS ONE, 2012).

For the assay, the target named is T1, carbonic anhydrase II (CAII) (Homo sapiens, UniProt P00918).
T1 construct: gene CA2; wild-type
Description: […] exchange between CO2 and water by membrane-inlet mass spectrometry; Henderson tight-binding analysis. It is filed as biochemical.

Molecules are shown by their SMILES.

As to `CCc1cc2c(cc1OS(N)(=O)=O)CC[C@@H]1C2CC[C@]2(C)[C@@H](O)C=C[C@@H]12` (stereo partly shown) [ESE-15-ol, 2-ethyl-3-O-sulphamoyl-estra-1,3,5(10),15-tetraen-17-ol], the Ki (usually the dissociation constant of the complex between target and ligand, obtained from inhibition or displacement) turned out to be 167 ± 19 nM.
